Laboratory results: publication PMC9669016, “First-in-human phase Ia study of the PI3Kα inhibitor CYH33 in patients with solid tumors” (Nature Communications, 2022)

System: patients with advanced solid tumors
Assay: Phase Ia safety, tolerability, DLT/MTD (TRAEs graded by NCI-CTCAE v4.03)
Type: in vivo
Excerpt: This is a phase I clinical study (ClinicalTrials.gov identifier: NCT03544905), including a phase Ia study of oral CYH33 monotherapy in patients with advanced solid tumors, and a phase Ib study of oral CYH33 monotherapy focused on several specific tumors. […] The phase Ia study included dose-escalation stage and dose-expansion stage. […] The secondary outcomes also included evaluation of changes in PD biomarkers in response to CYH33 treatment (including proteomics of blood specimens at baseline and during treatment, immunocyte subpopulation ratios and molecular markers, cell free DNA in peripheral blood, and blood glucose). However, in compliance with the local human genetic resource regulations and procedures, peripheral blood samples were not obtained for PD biomarker analysis, therefore, only fasting blood glucose was obtained and used as a PD biomarker for CYH33 treatment. The exploratory objective was the relationship between the efficacy of CYH33 treatment and tumor biomarker status.
An accelerated titration design (ATD) and an mTPI-2 design were adopted to guide toxicity monitoring and dose escalation. The target DLT rate was 30%, with the acceptable toxicity probability interval of (0.25, 0.35). For the first two preset doses of 1 mg and 5 mg CYH33 in the ATD phase, if there were no grade ≥2 TRAEs during the DLT observation period, 100% dose escalation was allowed in the subsequent dose group. After entering the mTPI-2 phase, the SMC guidance was followed to determine the dose level, dosing frequency, and number of subjects in the next dose group, based on the previously obtained safety and PK data for that dose group. If necessary, it was permitted to add an additional dose level between two explored dose levels for further investigation.
During the phase Ia study, the safe and probably effective dose will be delivered to the expansion cohort to further investigate the safety, tolerability and efficacy of this dose level, while the dose escalation study can be continued simultaneously. If necessary, it is permitted to insert a new dose level between two explored dose levels for exploration. The subjects to be enrolled in the expansion cohort are patients with advanced solid tumors with PIK3CA gene mutations. When there are two or more dose groups at dose expansion simultaneously, the allocation ratio of the number of subjects in each dose group should be as close as possible to the ratio of ORR in each dose group. In principle, when the cumulative ORR at a certain dose level is <10%, the number of subjects in this dose group will be determined by the SMC. A total of approximately 60 patients are expected to be enrolled in the whole phase Ia study.
The secondary endpoints included preliminary efficacy assessments based on ORR, PFS, DoR, DCR, and clinical benefit rate, assessed per RECIST 1.1,PK parameters for CYH33 and its metabolite I27, and changes in PD biomarkers in response to CYH33 treatment.

[1] = all patients 1–60 mg QD, n = 51

COC(=O)Nc1cc(C(F)(F)F)c(-c2nc(N3CCOCC3)c3cc(CN4CCN(S(C)(=O)=O)CC4)cn3n2)cn1 [CYH33, methyl (5-(6-((4-(methylsulfonyl)piperazin-1-yl)methyl)−4-morpholinopyrrolo[2,1-f][1,2,4]triazin-2-yl)−4-(trifluoromethyl)pyridin-2-yl)carbamate]
Generalized oedema, Grade ≥ 3 TRAE (1–20 mg QD, n = 10): 0 n (%) | Grade ≥ 3 TRAEs in all patients (1–20 mg QD, n = 10): 2 (20.0) n (%) | Hyperglycemia, Grade ≥ 3 TRAE (1–20 mg QD, n = 10): 2 (20.0) n (%) | Hyperglycemia, all-grade TRAE (1–20 mg QD, n = 10): 7 (70.0) n (%) | Hyponatremia, all-grade TRAE (1–20 mg QD, n = 10): 0 n (%) | Mouth ulceration, Grade ≥ 3 TRAE (1–20 mg QD, n = 10): 0 n (%) | Mouth ulceration, all-grade TRAE (1–20 mg QD, n = 10): 1 (10.0) n (%) | Nausea, Grade ≥ 3 TRAE (1–20 mg QD, n = 10): 0 n (%) | Nausea, all-grade TRAE (1–20 mg QD, n = 10): 3 (30.0) n (%) | Peripheral edema, Grade ≥ 3 TRAE (1–20 mg QD, n = 10): 0 n (%) | Peripheral edema, all-grade TRAE (1–20 mg QD, n = 10): 1 (10.0) n (%) | Rash, Grade ≥ 3 TRAE (1–20 mg QD, n = 10): 0 n (%) | Rash, all-grade TRAE (1–20 mg QD, n = 10): 1 (10.0) n (%) | TRAEs leading to death (1–20 mg QD, n = 10): 0 n (%) | TRAEs leading to dose discontinuation (1–20 mg QD, n = 10): 0 n (%) | TRAEs leading to dose interruption (1–20 mg QD, n = 10): 2 (20.0) n (%) | TRAEs leading to dose reduction (1–20 mg QD, n = 10): 1 (10.0) n (%) | TRAEs occurring in ≥ 10% of patients (1–20 mg QD, n = 10): 7 (70.0) n (%) | Treatment-related serious adverse events (1–20 mg QD, n = 10): 0 n (%) | Vomiting, all-grade TRAE (1–20 mg QD, n = 10): 3 (30.0) n (%) | Weight loss, all-grade TRAE (1–20 mg QD, n = 10): 1 (10.0) n (%) | White blood cell count decreased, Grade ≥ 3 TRAE (1–20 mg QD, n = 10): 0 n (%) | recommended phase 2 dose (RP2D) (QD): 40 mg | Blood glucose increased, Grade ≥ 3 TRAE [1]: 1 (2.0) n (%) | Decreased appetite, Grade ≥ 3 TRAE [1]: 1 (2.0) n (%) | Decreased appetite, all-grade TRAE [1]: 21 (41.2) n (%) | Diabetic ketosis, Grade ≥ 3 TRAE [1]: 1 (2.0) n (%) | Diarrhea, Grade ≥ 3 TRAE [1]: 2 (3.9) n (%) | Diarrhea, all-grade TRAE [1]: 15 (29.4) n (%) | Dizziness, Grade ≥ 3 TRAE [1]: 1 (2.0) n (%) | Electrocardiogram QT prolonged, Grade ≥ 3 TRAE [1]: 1 (2.0) n (%) | Face oedema, Grade ≥ 3 TRAE [1]: 1 (2.0) n (%) | Facial edema, all-grade TRAE [1]: 8 (15.7) n (%) | Fatigue, Grade ≥ 3 TRAE [1]: 1 (2.0) n (%) | Fatigue, all-grade TRAE [1]: 9 (17.6) n (%) | Generalized oedema, Grade ≥ 3 TRAE [1]: 1 (2.0) n (%) | Grade ≥ 3 TRAEs in all patients [1]: 33 (64.7) n (%) | Hyperglycemia, Grade ≥ 3 TRAE [1]: 30 (58.8) n (%) | Hyperglycemia, all-grade TRAE [1]: 46 (90.2) n (%) | Hyponatremia, all-grade TRAE [1]: 6 (11.8) n (%) | Mouth ulceration, Grade ≥ 3 TRAE [1]: 1 (2.0) n (%) | Mouth ulceration, all-grade TRAE [1]: 6 (11.8) n (%) | Nausea, Grade ≥ 3 TRAE [1]: 1 (2.0) n (%) | Nausea, all-grade TRAE [1]: 19 (37.3) n (%) | Peripheral edema, Grade ≥ 3 TRAE [1]: 4 (7.8) n (%) | Peripheral edema, all-grade TRAE [1]: 13 (25.5) n (%) | Rash, Grade ≥ 3 TRAE [1]: 1 (2.0) n (%) | Rash, all-grade TRAE [1]: 9 (17.6) n (%) | TRAEs leading to death [1]: 0 n (%) | TRAEs leading to dose discontinuation [1]: 4 (7.8) n (%) | TRAEs leading to dose interruption [1]: 36 (70.6) n (%) | TRAEs leading to dose reduction [1]: 6 (11.8) n (%) | TRAEs occurring in ≥ 10% of patients [1]: 47 (92.2) n (%) | Treatment-related serious adverse events [1]: 6 (11.8) n (%) | Vomiting, all-grade TRAE [1]: 13 (25.5) n (%) | Weight loss, all-grade TRAE [1]: 16 (31.4) n (%) | White blood cell count decreased, Grade ≥ 3 TRAE [1]: 1 (2.0) n (%) | serious AEs nausea, vomiting, abdominal pain, dyspnea, hyperglycemia, pyrexia (each) (all patients, n = 1 each): 2.0% | dose reduction due to peripheral edema, weight loss, mouth ulceration, prolonged electrocardiogram QT (each) (all patients, n = 1 for each): 2.0% | dose reduction due to fatigue (all patients, n = 2): 4.0% | hyperglycemia leading to dose interruption (all patients, n = 32 of 51): 62.7% | patients with dose interruptions due to TRAEs (all patients, n = 36 of 51): 70.6% | Decreased appetite, all-grade TRAE (all patients, n = 51): 41.2% | Diarrhea, all-grade TRAE (all patients, n = 51): 29.4% | Facial edema, all-grade TRAE (all patients, n = 51): 15.7% | Fatigue, all-grade TRAE (all patients, n = 51): 17.6% | Hyperglycemia, Grade ≥ 3 TRAE (all patients, n = 51): 58.8% | Hyperglycemia, TRAE at any grade (all patients, n = 51): 90.2% | Hyponatremia, all-grade TRAE (all patients, n = 51): 11.8% | Mouth ulceration, all-grade TRAE (all patients, n = 51): 11.8% | Nausea, all-grade TRAE (all patients, n = 51): 37.3% | Peripheral edema, all-grade TRAE (all patients, n = 51): 25.5% | Rash, all-grade TRAE (all patients, n = 51): 17.6% | Vomiting, all-grade TRAE (all patients, n = 51): 25.5% | Weight loss, all-grade TRAE (all patients, n = 51): 31.4% | incidences of all other grade ≥3 TRAEs (all patients, n = 51): < 5% | treatment-related deaths (all patients, n = 51): No treatment-related deaths | Peripheral edema, grade 3 TRAE (all patients, n = 51 (four patients)): 7.8% | patients with dose reductions due to TRAEs (all patients, six of 51): 11.8% | patients with treatment-associated serious AEs (all patients, six of 51): 11.8% | patients who permanently discontinued CYH33 due to DLTs (all patients, three of 51): 5.9% | maximum tolerated dose (MTD) (once daily, single agent, dose-escalation stage (mTPI-2)): 40 mg
